Laboratory results reported in patent US20240300980A1, “HETEROCYCLIC COMPOUNDS AS KRAS INHIBITOR, AND PREPARATION THEREFOR AND USE THEREOF IN TREATMENT” (SHANGHAI KECHOW PHARMA, INC., priority 2021, published 2024).
Like-named read-outs stand apart in the source and are kept apart here. Each block holds one compound with its values, some of them ahead of it.

Tested on: AGS cells (KRAS^G12D)
Assay: Detection of cell proliferation in vitro by MTT/MTS method (cell activity experiment)
Type: cell-based
Conditions: AGS cells, MTT/MTS, 3 days of drug treatment, read-out: AGS IC50
Procedure, shortened: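 KRAS G12D AGS cells seeded at 1000 per well, compound added 24 h later, 0.5% final DMSO. Viability read after 3 days of treatment by MTT (solubilised in DMSO) or MTS, 4 h, absorbance 490 nm. IC50 from dose–response curves versus DMSO control.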

Compound: C#Cc1c(F)ccc2cc(O)cc(-c3ncc4c(N5CC6CCCC(C5)N6)nc(OC[C@@]56CCCN5C[C@H](F)C6)nc4c3F)c12 [Example 43, 4-(4-(3,9-diazabicyclo [3.3.1]nonan-3-yl)-8-fluoro-2-(((2R,7aS)-2-fluorotetrahydro-1H-pyrrolizin-7a(5H)-yl)methoxy)pyrido[4,3-d]pyrimidin-7-yl)-5-ethynyl-6-fluoronaphthalen-2-ol]
IC50 (Homo sapiens, AGS, 72 h): 31 nM

Compound: C#Cc1c(F)ccc2cc(O)cc(-c3cc4nc(OC[C@@]56CCCN5C[C@H](F)C6)nc(N5C[C@H]6CC[C@@H](C5)N6)c4c4ncn(C)c34)c12 [Example 400, 4-(9-((1R,5S)-3,8-diazabicyclo[3.2.1]octan-3-yl)-7-(((2R,7aS)-2-fluorotetrahydro-1H-pyrrolizin-7a(5H)-yl)methoxy)-3-methyl-3H-imidazo[4,5-f]quinazolin-4-yl)-5-ethynyl-6-fluoronaphthalen-2-ol]
IC50 (Homo sapiens, AGS, 72 h): > 2500 nM

IC50 (Homo sapiens, AGS, 72 h): 330 nM
Compound: C#Cc1cccc2cc(O)cc(-c3ccc4c(N5C[C@H]6CC[C@@H](C5)O6)nc(OC[C@@]56CCCN5C[C@H](F)C6)nc4c3F)c12 [Example 157, 4-(4-((1R,5S)-8-oxa-3-azabicyclo[3.2.1]octan-3-yl)-8-fluoro-2-(((2R,7aS)-2-fluorotetrahydro-1H-pyrrolizin-7a(5H)-yl)methoxy)quinazolin-7-yl)-5-ethynylnaphthalen-2-ol]

Compound: CCc1ccc2cc(O)cc(-c3c4c(c5c(N6C[C@H]7CC[C@@H](C6)N7)nc(OC[C@@]67CCCN6C[C@H](F)C7)nc5c3F)OCO4)n12 [Example 397, 5-(9-((1R,5S)-3,8-diazabicyclo[3.2.1]octan-3-yl)-5-fluoro-7-(((2R,7aS)-2-fluorotetrahydro-1H-pyrrolizin-7a(5H)-yl)methoxy)-[1,3]dioxolo[4,5-f]quinazolin-4-yl)-3-ethylindolizin-7-ol]
IC50 (Homo sapiens, AGS, 72 h): 70 nM

Compound: C#Cc1c(F)ccc2cc(O)cc(-c3ncc4c(N5C[C@H]6CC[C@@H](C5)N6)nc(OC[C@@]56CCCN5C[C@H](F)C6)nc4c3OCC(F)(F)F)c12 [Example 333, 4-(4-((1R,5S)-3,8-diazabicyclo[3.2.1]octan-3-yl)-2-(((2R,7aS)-2-fluorotetrahydro-1H-pyrrolizin-7a(5H)-yl)methoxy)-8-(2,2,2-trifluoroethoxy)pyrido[4,3-d]pyrimidin-7-yl)-5-ethynyl-6-fluoronaphthalen-2-ol]
IC50 (Homo sapiens, AGS, 72 h): 455 nM

Compound: C#Cc1cccc2cc(O)cc(-c3ncc4c(C5C[C@H]6CC[C@@H](C5)N6)nc(OC[C@@]56CCCN5C[C@H](F)C6)nc4c3F)c12 (stereo partly drawn) [Example 83, 4-(4-((1R,5S)-8-azabicyclo[3.2.1]octan-3-yl)-8-fluoro-2-(((2R,7aS)-2-fluorotetrahydro-1H-pyrrolizin-7a(5H)-yl)methoxy)pyrido [4,3-d]pyrimidin-7-yl)-5-ethynylnaphthalen-2-ol]
IC50 (Homo sapiens, AGS, 72 h): > 2500 nM

Compound: Oc1cc(-c2ccc3c(N4C[C@H]5CC[C@@H](C4)N5)nc(OC[C@@]45CCCN4C[C@H](F)C5)nc3c2F)c2c(F)c(F)ccc2c1 [Example 94, 4-(4-((1R,5S)-3,8-diazabicyclo[3.2.1]octan-3-yl)-8-fluoro-2-(((2R,7aS)-2-fluorotetrahydro-1H-pyrrolizin-7a(5H)-yl)methoxy)quinazolin-7-yl)-5,6-difluoronaphthalen-2-ol]
IC50 (Homo sapiens, AGS, 72 h): 1.5 nM

Compound: Oc1cc2c(c(-c3ncc4c(N5C[C@H]6CC[C@@H](C5)N6)nc(OC[C@@]56CCCN5C[C@H](F)C6)nc4c3F)c1)C1(CC2)CC1 [Example 255, 7′-(4-((1R,5S)-3,8-diazabicyclo[3.2.1]octan-3-yl)-8-fluoro-2-(((2R,7aS)-2-fluorotetrahydro-1H-pyrrolizin-7a(5H)-yl)methoxy)pyrido[4,3-d]pyrimidin-7-yl)-2′,3′-dihydrospiro[cyclopropane-1,1′-inden]-5′-ol]
IC50 (Homo sapiens, AGS, 72 h): 157 nM

Compound: C#Cc1cccc2cc(O)cc(-c3ccc4c(N5C[C@H]6CC[C@@H](C5)N6)c(C#N)c(OC[C@@]56CCCN5C[C@H](F)C6)nc4c3)c12 [Example 173, 4-((1R,5S)-3,8-diazabicyclo[3.2.1]octan-3-yl)-7-(8-ethynyl-3-hydroxynaphthalen-1-yl)-2-(((2R,7aS)-2-fluorotetrahydro-1H-pyrrolizin-7a(5H)-yl)methoxy)quinoline-3-carbonitrile]
IC50 (Homo sapiens, AGS, 72 h): 1450 nM

Compound: Cc1cc(N)nc(-c2ncc3c(N4C[C@H]5CC[C@@H](C4)N5)nc(OCC4(CN5CCCC5)CC4)nc3c2F)c1C1CC1 [Example 9, 6-(4-((1R,5S)-3,8-diazabicyclo[3.2.1]octan-3-yl)-8-fluoro-2-((1-(pyrrolidin-1-ylmethyl)cyclopropyl)methoxy)pyrido[4,3-d]pyrimidin-7-yl)-5-cyclopropyl-4-methylpyridin-2-amine]
IC50 (Homo sapiens, AGS, 72 h): > 1000 nM

Compound: Oc1cc(N2CCc3c(nc(OC[C@@]45CCCN4C[C@H](F)C5)nc3N3C[C@H]4CC[C@@H](C3)N4)C2)c2c(F)cccc2c1 [Example 205, 4-(4-((1R,5S)-3,8-diazabicyclo[3.2.1]octan-3-yl)-2-(((2R,7aS)-2-fluorotetrahydro-1H-pyrrolizin-7a(5H)-yl)methoxy)-5,8-dihydropyrido[3,4-d]pyrimidin-7(6H)-yl)-5-fluoronaphthalen-2-ol]
IC50 (Homo sapiens, AGS, 72 h): 18 nM

Compound: Oc1cccc2cccc(C#Cc3ccc4c(N5C[C@H]6CC[C@@H](C5)N6)nc(OC[C@@]56CCCN5C[C@H](F)C6)nc4c3F)c12 [Example 364, 8-((4-((1R,5S)-3,8-diazabicyclo[3.2.1]octan-3-yl)-8-fluoro-2-(((2R,7aS)-2-fluorotetrahydro-1H-pyrrolizin-7a(5H)-yl)methoxy)quinazolin-7-yl)ethynyl)naphthalen-1-ol]
IC50 (Homo sapiens, AGS, 72 h): 811 nM

IC50 (Homo sapiens, AGS, 72 h): > 10000 nM
Compound: C#Cc1c(F)ccc2cc(O)cc(-c3ncc4c(N5CC6CCC(C5)C6S(C)(=O)=O)nc(OC[C@@]56CCCN5C[C@H](F)C6)nc4c3F)c12 (stereo partly drawn) [Example 66, 5-ethynyl-6-fluoro-4-(8-fluoro-2-(((2R,7aS)-2-fluorotetrahydro-1H-pyrrolizin-7a(5H)-yl)methoxy)-4-((1R,5S, 8R)-8-(methylsulfonyl)-3-azabicyclo[3.2.1]octan-3-yl)pyrido[4,3-d]pyrimidin-7-yl) naphthalen-2-ol]

IC50 (Homo sapiens, AGS, 72 h): 835 nM
Compound: C#Cc1c(F)ccc2cc(O)cc(-c3ccc4c(N5CC(C)(N)C5)nc(OC[C@@]56CCCN5C[C@H](F)C6)nc4c3F)c12 [Example 217, 4-(4-(3-amino-3-methylazetidin-1-yl)-8-fluoro-2-(((2R,7aS)-2-fluorotetrahydro-1H-pyrrolizin-7a(5H)-yl)methoxy)quinazolin-7-yl)-5-ethynyl-6-fluoronaphthalen-2-ol]

Compound: COC1CCCc2cc(O)cc(-c3ncc4c(N5C[C@H]6CC[C@@H](C5)N6)nc(OC[C@@]56CCCN5C[C@H](F)C6)nc4c3F)c21 (stereo partly drawn) [Example 270, 4-(4-((1R,5S)-3,8-diazabicyclo[3.2.1]octan-3-yl)-8-fluoro-2-(((2R,7aS)-2-fluorotetrahydro-1H-pyrrolizin-7a(5H)-yl)methoxy)pyrido[4,3-d]pyrimidin-7-yl)-5-methoxy-5,6,7,8-tetrahydronaphthalen-2-ol]
IC50 (Homo sapiens, AGS, 72 h): 20 nM

Compound: Oc1cc(C2=C(F)c3nc(OC[C@@]45CCCN4C[C@H](F)C5)nc(N4C[C@H]5CC[C@@H](C4)N5)c3C3=NCCN32)c2ccccc2c1 [Example 401, 4-(10-((1R,5S)-3,8-diazabicyclo[3.2.1]octan-3-yl)-6-fluoro-8-(((2R,7aS)-2-fluorotetrahydro-1H-pyrrolizin-7a(5H)-yl)methoxy)-2,3-dihydroimidazo[1′,2′:1,2]pyrido[4,3-d]pyrimidin-5-yl)naphthalen-2-ol]
IC50 (Homo sapiens, AGS, 72 h): 100 nM

Compound: CCC1CCc2cc(O)cc(-c3c(F)c4nc(OC[C@@]56CCCN5C[C@H](F)C6)nc(N5C[C@H]6CC[C@@H](C5)N6)c4c4nccn34)c21 (stereo partly drawn) [Example 415, 7-(10-((1R,5S)-3,8-diazabicyclo[3.2.1]octan-3-yl)-6-fluoro-8-(((2R,7aS)-2-fluorotetrahydro-1H-pyrrolizin-7a(5H)-yl)methoxy)imidazo[1′,2′:1,2]pyrido[4,3-d]pyrimidin-5-yl)-1-ethyl-2,3-dihydro-1H-inden-5-ol]
IC50 (Homo sapiens, AGS, 72 h): 60 nM

Compound: C#Cc1cccc2cc(O)cc(-c3ncc4c(N5C[C@H]6CC[C@@H](C5)N6)nc(OCC5(CN6CCCC6)CC5)nc4c3F)c12 [Example 1, 4-(4-((1R,5S)-3,8-diazabicyclo[3.2.1]octan-3-yl)-8-fluoro-2-((1-(pyrrolidin-1-ylmethyl)cyclopropyl)methoxy)pyrido[4,3-d]pyrimidin-7-yl)-5-ethynyl naphthalen-2-ol]
IC50 (Homo sapiens, AGS, 72 h): 8.1 nM

Compound: C#Cc1cccc2cc(O)cc(-c3ccc4c(C5C[C@H]6CC[C@@H](C5)N6)nc(OC[C@@]56CCCN5C[C@H](F)C6)nc4c3F)c12 (stereo partly drawn) [Example 138, 4-(4-((1R,5S)-8-azabicyclo[3.2.1]octan-3-yl)-8-fluoro-2-(((2R, 7aS)-2-fluorotetrahydro-1H-pyrrolizin-7a(5H)-yl)methoxy)quinazolin-7-yl)-5-ethynylnaphthalen-2-ol]
IC50 (Homo sapiens, AGS, 72 h): > 2500 nM

IC50: > 2500 nM
Compound: C#Cc1cccc2cc(O)cc(-c3ccc4c(N5C[C@H]6CC[C@@H](C5)[C@@H]6F)nc(OC[C@@]56CCCN5C[C@H](F)C6)nc4c3F)c12 [Example 125, 5-ethynyl-4-(8-fluoro-4-((1R,5S,8R)-8-fluoro-3-azabicyclo [3.2.1]octan-3-yl)-2-(((2R,7aS)-2-fluorotetrahydro-1H-pyrrolizin-7a(5H)-yl)methoxy)quinazolin-7-yl)naphthalen-2-ol]

Compound: C#Cc1c(F)ccc2cc(O)cc(-c3ncc4c(N5C[C@H]6CC[C@@H](C5)N6)nc(OC[C@@]56CCCN5C[C@H](F)C6)nc4c3OC3CC3)c12 [Example 334, 4-(4-((1R,5S)-3,8-diazabicyclo[3.2.1]octan-3-yl)-8-cyclopropoxy-2-(((2R,7aS)-2-fluorotetrahydro-1H-pyrrolizin-7a(5H)-yl)methoxy)pyrido[4,3-d]pyrimidin-7-yl)-5-ethynyl-6-fluoronaphthalen-2-ol]
IC50 (Homo sapiens, AGS, 72 h): 125 nM
